Laboratory results as given in PubChem BioAssay (NCI).
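Tested at 5 concentrations; 48 h exposure; 96-well plates; endpoints linearly interpolated, else capped at highest concentration. TGI: concentration producing complete growth inhibition.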

Columns and labels:
Experiment in all cases: growth of human tumour cells (NCI), 48 h
A549 NSCLC = test system: A549 NSCLC
SW-620 colon = test system: SW-620 colon
MCF7 breast = test system: MCF7 breast
SNB-75 CNS = test system: SNB-75 CNS
KM12 colon = test system: KM12 colon
CAKI-1 renal = test system: CAKI-1 renal
SK-MEL-5 melanoma = test system: SK-MEL-5 melanoma
NCI-H522 lung = test system: NCI-H522 lung
IGROV1 ovarian = test system: IGROV1 ovarian
HCT-116 colon = test system: HCT-116 colon
OVCAR-3 ovarian = test system: OVCAR-3 ovarian
RXF 393 renal = test system: RXF 393 renal
SK-OV-3 ovarian = test system: SK-OV-3 ovarian
LOX IMVI melanoma = test system: LOX IMVI melanoma
MDA-N = test system: MDA-N
MALME-3M melanoma = test system: MALME-3M melanoma
MOLT-4 leukemia = test system: MOLT-4 leukemia
OVCAR-4 ovarian = test system: OVCAR-4 ovarian
M14 melanoma = test system: M14 melanoma
SF-268 CNS = test system: SF-268 CNS
MDA-MB-231 breast = test system: MDA-MB-231 breast
HL-60(TB) leukemia = test system: HL-60(TB) leukemia
CCRF-CEM leukemia = test system: CCRF-CEM leukemia
DU-145 prostate = test system: DU-145 prostate
T-47D breast = test system: T-47D breast
UO-31 renal = test system: UO-31 renal
HOP-92 NSCLC = test system: HOP-92 NSCLC
COLO 205 colon = test system: COLO 205 colon
NCI-H23 lung = test system: NCI-H23 lung
HCT-15 colon = test system: HCT-15 colon
SN12C renal = test system: SN12C renal
TK-10 renal = test system: TK-10 renal
NCI/ADR-RES ovarian = test system: NCI/ADR-RES ovarian
NCI-H460 lung = test system: NCI-H460 lung
SNB-19 CNS = test system: SNB-19 CNS
HCC-2998 colon = test system: HCC-2998 colon
HOP-62 NSCLC = test system: HOP-62 NSCLC
RPMI-8226 leukemia = test system: RPMI-8226 leukemia
SF-295 CNS = test system: SF-295 CNS
EKVX NSCLC = test system: EKVX NSCLC
HT29 colon = test system: HT29 colon
BT-549 breast = test system: BT-549 breast
NCI-H226 lung = test system: NCI-H226 lung
SK-MEL-28 melanoma = test system: SK-MEL-28 melanoma
SR leukemia = test system: SR leukemia
PC-3 prostate = test system: PC-3 prostate
UACC-62 melanoma = test system: UACC-62 melanoma
SF-539 CNS = test system: SF-539 CNS
A498 renal = test system: A498 renal
ACHN renal = test system: ACHN renal
U251 CNS = test system: U251 CNS
OVCAR-8 ovarian = test system: OVCAR-8 ovarian
SK-MEL-2 melanoma = test system: SK-MEL-2 melanoma
OVCAR-5 ovarian = test system: OVCAR-5 ovarian
786-0 renal = test system: 786-0 renal
HS 578T breast = test system: HS 578T breast
UACC-257 melanoma = test system: UACC-257 melanoma
MDA-MB-435 = test system: MDA-MB-435
K-562 leukemia = test system: K-562 leukemia

COC(=O)[C@@H]1C[C@@]23CCCN4CC[C@@]5(c6cccc(OC)c6N(C=O)[C@]15CC2)[C@@H]43
TGI (A549 NSCLC): > 100 µM
TGI (SW-620 colon): > 100 µM
TGI (MCF7 breast): > 100 µM
TGI (SNB-75 CNS): > 100 µM
TGI (KM12 colon): > 100 µM
TGI (CAKI-1 renal): > 100 µM
TGI (SK-MEL-5 melanoma): > 100 µM
TGI (NCI-H522 lung): > 100 µM
TGI (IGROV1 ovarian): > 100 µM
TGI (HCT-116 colon): > 100 µM
TGI (OVCAR-3 ovarian): > 100 µM
TGI (RXF 393 renal): > 100 µM
TGI (SK-OV-3 ovarian): > 100 µM
TGI (LOX IMVI melanoma): > 100 µM
TGI (MDA-N): > 100 µM
TGI (MALME-3M melanoma): > 100 µM
TGI (MOLT-4 leukemia): > 100 µM
TGI (OVCAR-4 ovarian): > 100 µM
TGI (M14 melanoma): > 100 µM
TGI (SF-268 CNS): > 100 µM
TGI (MDA-MB-231 breast): > 100 µM
TGI (HL-60(TB) leukemia): > 100 µM
TGI (CCRF-CEM leukemia): > 100 µM
TGI (DU-145 prostate): > 100 µM
TGI (T-47D breast): > 100 µM
TGI (UO-31 renal): > 100 µM
TGI (HOP-92 NSCLC): > 100 µM
TGI (COLO 205 colon): > 100 µM
TGI (NCI-H23 lung): > 100 µM
TGI (HCT-15 colon): > 100 µM
TGI (SN12C renal): > 100 µM
TGI (TK-10 renal): > 100 µM
TGI (NCI/ADR-RES ovarian): > 100 µM
TGI (NCI-H460 lung): > 100 µM
TGI (SNB-19 CNS): > 100 µM
TGI (HCC-2998 colon): > 100 µM
TGI (HOP-62 NSCLC): > 100 µM
TGI (RPMI-8226 leukemia): > 100 µM
TGI (SF-295 CNS): > 100 µM
TGI (EKVX NSCLC): > 100 µM
TGI (HT29 colon): > 100 µM
TGI (BT-549 breast): > 100 µM
TGI (NCI-H226 lung): > 100 µM
TGI (SK-MEL-28 melanoma): > 100 µM
TGI (SR leukemia): > 100 µM
TGI (PC-3 prostate): > 100 µM
TGI (UACC-62 melanoma): > 100 µM
TGI (SF-539 CNS): > 100 µM
TGI (A498 renal): > 100 µM
TGI (ACHN renal): > 100 µM
TGI (U251 CNS): > 100 µM
TGI (OVCAR-8 ovarian): > 100 µM
TGI (SK-MEL-2 melanoma): > 100 µM
TGI (OVCAR-5 ovarian): > 100 µM
TGI (786-0 renal): > 100 µM
TGI (HS 578T breast): > 100 µM
TGI (UACC-257 melanoma): > 100 µM
TGI (MDA-MB-435): > 100 µM

COc1ccc2c(c1)[C@@H]1c3cc(OC)c(OC)cc3CCN1CCC2
TGI (A549 NSCLC): > 100 µM
TGI (SW-620 colon): > 100 µM
TGI (MCF7 breast): > 100 µM
TGI (SNB-75 CNS): > 100 µM
TGI (KM12 colon): > 100 µM
TGI (CAKI-1 renal): > 100 µM
TGI (SK-MEL-5 melanoma): > 100 µM
TGI (NCI-H522 lung): > 100 µM
TGI (IGROV1 ovarian): > 100 µM
TGI (HCT-116 colon): > 100 µM
TGI (OVCAR-3 ovarian): > 100 µM
TGI (RXF 393 renal): > 100 µM
TGI (K-562 leukemia): > 100 µM
TGI (LOX IMVI melanoma): > 100 µM
TGI (MDA-N): > 100 µM
TGI (MALME-3M melanoma): > 100 µM
TGI (MOLT-4 leukemia): > 100 µM
TGI (OVCAR-4 ovarian): > 100 µM
TGI (M14 melanoma): > 100 µM
TGI (SF-268 CNS): > 100 µM
TGI (MDA-MB-231 breast): > 100 µM
TGI (HL-60(TB) leukemia): > 100 µM
TGI (CCRF-CEM leukemia): > 100 µM
TGI (DU-145 prostate): > 100 µM
TGI (T-47D breast): > 100 µM
TGI (UO-31 renal): > 100 µM
TGI (HOP-92 NSCLC): > 100 µM
TGI (COLO 205 colon): > 100 µM
TGI (NCI-H23 lung): > 100 µM
TGI (HCT-15 colon): > 100 µM
TGI (SN12C renal): > 100 µM
TGI (TK-10 renal): > 100 µM
TGI (NCI/ADR-RES ovarian): > 100 µM
TGI (NCI-H460 lung): > 100 µM
TGI (SNB-19 CNS): > 100 µM
TGI (HCC-2998 colon): > 100 µM
TGI (HOP-62 NSCLC): > 100 µM
TGI (RPMI-8226 leukemia): > 100 µM
TGI (SF-295 CNS): > 100 µM
TGI (EKVX NSCLC): > 100 µM
TGI (HT29 colon): > 100 µM
TGI (BT-549 breast): > 100 µM
TGI (SK-MEL-28 melanoma): > 100 µM
TGI (SR leukemia): > 100 µM
TGI (PC-3 prostate): > 100 µM
TGI (UACC-62 melanoma): > 100 µM
TGI (SF-539 CNS): > 100 µM
TGI (A498 renal): > 100 µM
TGI (ACHN renal): > 100 µM
TGI (U251 CNS): > 100 µM
TGI (OVCAR-8 ovarian): > 100 µM
TGI (SK-MEL-2 melanoma): > 100 µM
TGI (OVCAR-5 ovarian): > 100 µM
TGI (786-0 renal): > 100 µM
TGI (HS 578T breast): > 100 µM
TGI (UACC-257 melanoma): > 100 µM
TGI (MDA-MB-435): > 100 µM

CCc1c(-c2ccc(OC)cc2)c(=O)oc2cc(O)ccc12
TGI (A549 NSCLC): > 100 µM
TGI (SW-620 colon): > 100 µM
TGI (MCF7 breast): > 100 µM
TGI (SNB-75 CNS): > 100 µM
TGI (KM12 colon): > 100 µM
TGI (CAKI-1 renal): > 100 µM
TGI (SK-MEL-5 melanoma): 33.8 µM
TGI (NCI-H522 lung): > 100 µM
TGI (IGROV1 ovarian): > 100 µM
TGI (HCT-116 colon): > 100 µM
TGI (OVCAR-3 ovarian): 87.5 µM
TGI (RXF 393 renal): > 100 µM
TGI (K-562 leukemia): > 100 µM
TGI (LOX IMVI melanoma): > 100 µM
TGI (MDA-N): > 100 µM
TGI (MALME-3M melanoma): 79.5 µM
TGI (MOLT-4 leukemia): 57.9 µM
TGI (OVCAR-4 ovarian): > 100 µM
TGI (M14 melanoma): 56.8 µM
TGI (SF-268 CNS): > 100 µM
TGI (MDA-MB-231 breast): > 100 µM
TGI (HL-60(TB) leukemia): 32.6 µM
TGI (CCRF-CEM leukemia): > 100 µM
TGI (DU-145 prostate): > 100 µM
TGI (T-47D breast): > 100 µM
TGI (UO-31 renal): 68.4 µM
TGI (HOP-92 NSCLC): > 100 µM
TGI (COLO 205 colon): 97.1 µM
TGI (NCI-H23 lung): > 100 µM
TGI (HCT-15 colon): > 100 µM
TGI (SN12C renal): > 100 µM
TGI (NCI/ADR-RES ovarian): > 100 µM
TGI (NCI-H460 lung): > 100 µM
TGI (SNB-19 CNS): > 100 µM
TGI (HCC-2998 colon): > 100 µM
TGI (HOP-62 NSCLC): > 100 µM
TGI (RPMI-8226 leukemia): 47.6 µM
TGI (SF-295 CNS): > 100 µM
TGI (EKVX NSCLC): > 100 µM
TGI (HT29 colon): > 100 µM
TGI (BT-549 breast): 75.9 µM
TGI (NCI-H226 lung): > 100 µM
TGI (SK-MEL-28 melanoma): > 100 µM
TGI (SR leukemia): 58.4 µM
TGI (PC-3 prostate): 83.3 µM
TGI (UACC-62 melanoma): > 100 µM
TGI (SF-539 CNS): > 100 µM
TGI (A498 renal): 98.7 µM
TGI (ACHN renal): > 100 µM
TGI (U251 CNS): > 100 µM
TGI (OVCAR-8 ovarian): > 100 µM
TGI (SK-MEL-2 melanoma): > 100 µM
TGI (OVCAR-5 ovarian): > 100 µM
TGI (786-0 renal): > 100 µM
TGI (HS 578T breast): > 100 µM
TGI (UACC-257 melanoma): 61.3 µM
TGI (MDA-MB-435): > 100 µM
